Tests used:
[1] = test system: Terebratalia transversa larvae; experiment: Behavioural assay: full contraction / defence stance of larvae exposed to synthetic peptides; format: in vivo; conditions: for contraction reaction of larvae (in words): at 50 µmol l^−1 (maximum concentration cutoff); for necessary concentration to induce defense stance (full contraction): > 50 stands for 'no contraction at 50 µM'
Description: The reaction of larvae to synthetic peptides (GenScript) that were predicted from the prepropeptide sequence were tested and compared with the reactions to peptides with non-native modifications. Freely swimming larvae were exposed to different concentrations of peptides in 4-well and 6-well plates (1 ml and 5 ml total volume per well, respectively), and their reactions were observed under a stereomicroscope. To determine the efficiency of the native and modified peptides, the larvae were tested for the necessary minimum concentration at which they fully contracted and spread their chaetae, using 30–100 larvae in each test. To get an estimation of the peptide concentration that was necessary to induce a complete contraction, the larvae were initially exposed to 50 nmol l^−1 of the respective peptide and the concentration was then increased stepwise until the larvae fully contracted or a concentration of 50 µmol l^−1 was reached as an upper cutoff. […] To test the influence of the peptides on the vertical distribution of larvae in a water column, freely swimming larvae (50–100 per treatment) were exposed to peptides in transparent 4.5 ml cuvettes. About 60 s after addition of the peptides, the larvae were recorded with a digital camera (DMK 31AU03 camera, The Imaging Source) in a darkened box with artificial top-illumination. All experiments were repeated at least once with a different batch of larvae from another fertilization and the outcome was averaged. Control animals were exposed to DMSO only.

[2] = test system: T. transversa FLRFamide receptor; experiment: Receptor deorphanization: luminescence response of transfected CHO-K1 cells; format: cell-based, Terebratalia transversa; conditions: fixed peptide concentration 1 µmol l^−1 (figure 4a)
Text: For the receptor deorphanization, the procedure was used as described by Bauknecht & Jékely: full-length open reading frames of the receptor candidate sequences were amplified by PCR from cDNA of mixed larval stages. The forward primers included a 5′ attachment consisting of a spacer, an EcoR1 or BamH1 restriction site and a Kozak sequence and the reverse primers included a 5′ attachment consisting of a spacer and a Not1 restriction site (see the electronic supplementary material for primer sequences). […] The luminescence response of the transfected cells was measured in a plate reader (BioTek Synergy Mx or Synergy H4, BioTek, Winooski, USA) over 45 s after addition of the neuropeptides. […] Dose–response curves were calculated using PRISM 6 (GraphPad, La Jolla, USA) and normalized against the upper plateau values (100% activation).
Figure 4. Luminescence response of T. transversa FLRFamide receptor expressing CHO-K1 cells to different peptides. (a) Relative luminescence of T. transversa FLRFamide receptor expressing cells after exposure to different peptides with a fixed concentration of 1 µmol l^−1. […] Luminescence values are given relative to maximum luminescence (max = 1). RLU relative luminescence.

[3] = test system: late chaetous larvae of P. dumerilii; experiment: Behavioural test of the orthologue peptide for a defence reaction; format: in vivo, Platynereis dumerilii; conditions: no defence reaction even above this concentration
[4] = test system: late chaetous larvae of Novocrania anomala; experiment: as above; format: in vivo; conditions: no defence reaction even above this concentration

Sequence of T. transversa FLRFamide receptor (as listed by the source): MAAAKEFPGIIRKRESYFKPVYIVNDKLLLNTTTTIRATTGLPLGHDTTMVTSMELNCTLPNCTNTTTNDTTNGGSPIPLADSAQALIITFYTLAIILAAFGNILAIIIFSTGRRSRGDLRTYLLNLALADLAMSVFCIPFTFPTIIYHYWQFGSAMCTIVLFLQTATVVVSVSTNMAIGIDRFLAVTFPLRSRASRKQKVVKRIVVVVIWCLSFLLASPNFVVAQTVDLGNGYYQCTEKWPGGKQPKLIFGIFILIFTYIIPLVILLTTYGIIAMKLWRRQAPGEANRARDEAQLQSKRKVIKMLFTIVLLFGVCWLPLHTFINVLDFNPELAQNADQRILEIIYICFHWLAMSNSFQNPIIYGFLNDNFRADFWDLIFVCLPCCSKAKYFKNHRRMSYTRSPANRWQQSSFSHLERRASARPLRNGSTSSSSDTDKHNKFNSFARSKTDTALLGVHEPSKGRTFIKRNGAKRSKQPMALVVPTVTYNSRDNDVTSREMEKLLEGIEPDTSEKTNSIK

Substance | contraction reaction of larvae (in words) [1] | necessary concentration to induce defense stance (full contraction) ([1]; batch 1) [µM] | necessary concentration to induce defense stance (full contraction) ([1]; batch 2) [µM] | further results
AFLRLamide [modified AFLRFamide with C-terminal leucine] | no reaction at all |  |  | 
AFLRWamide [modified AFLRFamide with amidated C-terminal tryptophan] |  | 20 | 20 | concentration triggering full contraction / defence stance (minimum necessary concentration) ([1]; cutoff 50 µmol l^−1): 20 µmol/L; reduction of effectiveness on changing the amidated C-terminal phenylalanine to an amidated tryptophan ([1]; relative to the corresponding Famide peptide): about 10 fold
DFLRLamide [modified DFLRFamide with C-terminal leucine] | very weak contraction |  |  | luminescence response of FLRFamide receptor expressing CHO-K1 cells (in words) [2]: barely higher than the negative control
FMRFamide [orthologue of AFLRFamide/DFLRFamide in P. dumerilii] |  |  |  | concentration inducing a defence reaction [3]: above 50 µmol l^−1
YMRFamide [orthologue of AFLRFamide/DFLRFamide] |  | 10 | 15 | concentration inducing a defence reaction [4]: above 50 µmol l^−1

From publication PMC5577450, “An ancient FMRFamide-related peptide–receptor pair induces defence behaviour in a brachiopod larva” (Open Biology, 2017)
